Tested on: p38 MAP kinase signal
Assay: Western blotting of phosphorylated ATF2, downstream molecule of p38 MAP kinase signal
Assay type: cell-based, human
Settings: Western blotting after 20 days from stimulation; 10 μM and 30 μM
Description: *Human corneal endothelial cells (HCEC, where the cells were obtained and culturing method thereof): HCEC was cultured as follows. In short, Descemet's membrane including corneal endothelial cells was peeled off from a corneal for research purchased from the Seattle Eye Bank, and the corneal endothelial cells were mechanically peeled off with a basal membrane. […] Specifically, after digestion at 37° C., HCEC obtained from individual corneas was resuspended in a culture medium and plated on a well of a 12-well plate coated with FNC Coating Mix®. The culture medium was prepared in accordance with a partially-modified disclosed protocol. In short, a basal cultural medium containing OptiMEM-I (Life Technologies), 8% FBS, 5 ng/mL of epithelial growth factor (EGF) (Sigma-Aldrich Co., St. Louis, Mo.), 20 μg/mL of ascorbic acid (Sigma-Aldrich), 200 mg/L calcium chloride (Sigma-Aldrich), 0.08% chondroitin sulfate (Wako Pure Chemical Industries, Osaka) and 50 μg/mL of gentamicin was prepared and an acclimated medium was collected after inactivated 3T3 fibroblasts were cultured. The 3T3 fibroblasts were inactivated as previously described. […] Immunostaining was applied to the cells for observation with a fluorescence microscope. […]

C[S+]([O-])c1ccc(-c2nc(-c3ccncc3)c(-c3ccc(F)cc3)[nH]2)cc1 (stereo not shown) [SB203580, 4-(4-fluorophenyl)-2-(4-methylsulfinylphenyl)-5-(4-pyridyl)-1H-imidazole]
phosphorylation of ATF2: suppressed

Source: patent US10813920B2, “Drug for treating corneal endothelium by promoting cell proliferation or inhibiting cell damage” (THE DOSHISHA, priority 2013, dated 2020)
